Columns and labels:
dogs [1] = test: Emesis after oral administration; assay type: in vivo, dog; conditions: for dogs showing emesis: 20 mg/kg oral capsule, within 5 hours after administration; for emetic activity on oral administration: oral administration to animals, dose not stated
Experimental: Another unexpected substantial advantage is that the (S) enantiomer provides a substantial reduction in emesis when administered to an animal orally. By the term “emesis” is meant vomiting. Generally, an emetic substance elicits emesis in less than 24 hours after administration, usually less than 8 hours, more usually less than 2 hours.

[2] = test system: cat fleas (Ctenocephalides felis); test: Oral efficacy against cat fleas on infested dogs; assay type: in vivo
[3] = test system: brown dog ticks (Rhipicephalus sanguineus); test: Oral efficacy against brown dog ticks on infested dogs; conditions: for ticks remaining: 23 days after administration
dogs [4] = conditions: 10 mg/kg in dogs

Compound	dogs showing emesis (dogs [1])	emetic activity on oral administration (dogs [1])	per cent (%) mortality of the arthropods, Flea ([2]; 1 mg/kg oral, 1 DAT)	per cent (%) mortality of the arthropods, Flea ([2]; 1 mg/kg oral, 9 DAT)	per cent (%) mortality of the arthropods, Flea ([2]; 1 mg/kg oral, 16 DAT)	per cent (%) mortality of the arthropods, Flea ([2]; 1 mg/kg oral, 23 DAT)	per cent (%) mortality of the arthropods, Flea ([2]; 3 mg/kg oral, 1 DAT)	per cent (%) mortality of the arthropods, Flea ([2]; 3 mg/kg oral, 9 DAT)	per cent (%) mortality of the arthropods, Flea ([2]; 3 mg/kg oral, 16 DAT)	per cent (%) mortality of the arthropods, Flea ([2]; 3 mg/kg oral, 23 DAT)	per cent (%) mortality of the arthropods, Flea ([2]; 10 mg/kg oral, 1 DAT)	per cent (%) mortality of the arthropods, Flea ([2]; 10 mg/kg oral, 9 DAT)	per cent (%) mortality of the arthropods, Flea ([2]; 10 mg/kg oral, 16 DAT)	per cent (%) mortality of the arthropods, Flea ([2]; 10 mg/kg oral, 23 DAT)	per cent (%) mortality of the arthropods, Flea ([2]; 20 mg/kg oral capsule, 1 DAT)	per cent (%) mortality of the arthropods, Flea ([2]; 20 mg/kg oral capsule, 9 DAT)	per cent (%) mortality of the arthropods, Flea ([2]; 20 mg/kg oral capsule, 16 DAT)	per cent (%) mortality of the arthropods, Flea ([2]; 20 mg/kg oral capsule, 23 DAT)	per cent (%) mortality of the arthropods, Flea ([2]; 20 mg/kg oral capsule, 31 DAT)	per cent (%) mortality of the arthropods, Tick ([3]; 1 mg/kg oral, 1 DAT)	other results
N#Cc1nn(-c2c(Cl)cc(C(F)(F)F)cc2Cl)c(N)c1[S@+]([O-])C(F)(F)F [Compound B, (S)-5-amino-3-cyano-1-(2,6-dichloro-4-trifluoromethylphenyl)-4-trifluoromethylsulfinylpyrazole]	50%	lower emetic activity	100%	100%	90%	79%	100%	98%	67%	50%	100%	99%	87%	83%	100%	96%	86%	88%	84%	100%	symptoms of emesis (dogs [1]; oral, dogs, at any rate (1, 3, 10 mg/kg)): substantially no symptoms of emesis; per cent (%) mortality of the arthropods, Tick ([3]; 1 mg/kg oral, 9 DAT): 100%; per cent (%) mortality of the arthropods, Tick ([3]; 1 mg/kg oral, 16 DAT): 87%; per cent (%) mortality of the arthropods, Tick ([3]; 1 mg/kg oral, 23 DAT): 85%; per cent (%) mortality of the arthropods, Tick ([3]; 3 mg/kg oral, 1 DAT): 98%; per cent (%) mortality of the arthropods, Tick ([3]; 3 mg/kg oral, 9 DAT): 99%; per cent (%) mortality of the arthropods, Tick ([3]; 3 mg/kg oral, 16 DAT): 75%; per cent (%) mortality of the arthropods, Tick ([3]; 3 mg/kg oral, 23 DAT): 63%; per cent (%) mortality of the arthropods, Tick ([3]; 10 mg/kg oral, 1 DAT): 99%; per cent (%) mortality of the arthropods, Tick ([3]; 10 mg/kg oral, 9 DAT): 100%; per cent (%) mortality of the arthropods, Tick ([3]; 10 mg/kg oral, 16 DAT): 85%; per cent (%) mortality of the arthropods, Tick (effectiveness) ([3]; 10 mg/kg oral, 23 DAT): 85%; ticks remaining ([3]; 10 mg/kg oral): 15%; per cent (%) mortality of the arthropods, Tick ([3]; 20 mg/kg oral capsule, 1 DAT): 99%; per cent (%) mortality of the arthropods, Tick ([3]; 20 mg/kg oral capsule, 9 DAT): 97%; per cent (%) mortality of the arthropods, Tick ([3]; 20 mg/kg oral capsule, 16 DAT): 87%; per cent (%) mortality of the arthropods, Tick ([3]; 20 mg/kg oral capsule, 23 DAT): 86%; per cent (%) mortality of the arthropods, Tick ([3]; 20 mg/kg oral capsule, 31 DAT): 92%
CC(=O)Nc1c([S@@+]([O-])C(F)(F)F)c(C#N)nn1-c1c(Cl)cc(C(F)(F)F)cc1Cl (single isomer, unassigned) [5-acetylamino (R) enantiomer]	–	–	–	–	–	–	–	–	–	–	–	–	–	–	–	–	–	–	–	–	mortality (dogs [4]): 33%
N#Cc1nn(-c2c(Cl)cc(C(F)(F)F)cc2Cl)c(N)c1[S@@+]([O-])C(F)(F)F [Compound C, (R)-5-amino-3-cyano-1-(2,6-dichloro-4-trifluoromethylphenyl)-4-trifluoromethylsulfinylpyrazole]	90%	–	100%	100%	76%	72%	100%	78%	72%	64%	100%	95%	72%	86%	100%	86%	69%	67%	69%	100%	animals showing emesis symptoms (dogs [1]; 3 mg/kg oral, dogs, after 2 hours): 20%; animals showing emesis symptoms (dogs [1]; 10 mg/kg oral, dogs, after 1 hour): 40%; animals showing emesis symptoms (dogs [1]; 10 mg/kg oral, dogs, after 3 hours): 20%; per cent (%) mortality of the arthropods, Tick ([3]; 1 mg/kg oral, 9 DAT): 100%; per cent (%) mortality of the arthropods, Tick ([3]; 1 mg/kg oral, 16 DAT): 66%; per cent (%) mortality of the arthropods, Tick ([3]; 1 mg/kg oral, 23 DAT): 78%; per cent (%) mortality of the arthropods, Tick ([3]; 3 mg/kg oral, 1 DAT): 93%; per cent (%) mortality of the arthropods, Tick ([3]; 3 mg/kg oral, 9 DAT): 89%; per cent (%) mortality of the arthropods, Tick ([3]; 3 mg/kg oral, 16 DAT): 71%; per cent (%) mortality of the arthropods, Tick ([3]; 3 mg/kg oral, 23 DAT): 65%; per cent (%) mortality of the arthropods, Tick ([3]; 10 mg/kg oral, 1 DAT): 97%; per cent (%) mortality of the arthropods, Tick ([3]; 10 mg/kg oral, 9 DAT): 97%; per cent (%) mortality of the arthropods, Tick ([3]; 10 mg/kg oral, 16 DAT): 71%; per cent (%) mortality of the arthropods, Tick (effectiveness) ([3]; 10 mg/kg oral, 23 DAT): 71%; ticks remaining ([3]; 10 mg/kg oral): 29%; per cent (%) mortality of the arthropods, Tick ([3]; 20 mg/kg oral capsule, 1 DAT): 97%; per cent (%) mortality of the arthropods, Tick ([3]; 20 mg/kg oral capsule, 9 DAT): 96%; per cent (%) mortality of the arthropods, Tick ([3]; 20 mg/kg oral capsule, 16 DAT): 85%; per cent (%) mortality of the arthropods, Tick ([3]; 20 mg/kg oral capsule, 23 DAT): 77%; per cent (%) mortality of the arthropods, Tick ([3]; 20 mg/kg oral capsule, 31 DAT): 81%
N#Cc1nn(-c2c(Cl)cc(C(F)(F)F)cc2Cl)c(N)c1[S+]([O-])C(F)(F)F (racemic) [fipronil, 5-amino-3-cyano-1-(2,6-dichloro-4-trifluoromethylphenyl)-4-trifluoromethylsulfinylpyrazole]	–	causes emesis	–	–	–	–	–	–	–	–	–	–	–	–	–	–	–	–	–	–	–

Reference: US6346542B1, “Pesticidal composition comprising enantiomeric form of fipronil” (priority 1999, dated 2002)
